Measurements reported in patent US9561232B2, “Low dose noribogaine for treating nicotine addiction and preventing relapse of nicotine use” (priority 2014, dated 2017).
“Also recorded” adds a separate entry of the source. Read-outs that look alike come from different tables or passages of the source.

Tests used:
[1] = Cold pressor test in healthy volunteers; assay type: in vivo, human; conditions: ANOVA after adjusting for baseline
Description: Analgesic effect was assessed based on duration of hand immersion in ice water and on visual analog scale (VAS) pain scores upon hand removal from the water bath.

[2] = test system: zebrafish during nicotine withdrawal; assay type: in vivo
Description: A total of 60 adult wild type short-fin zebrafish (˜50:50 male:female ratio) were used in this study. Fish were housed in groups of 20-30 fish per 40-L tank. Tanks were filled with filtered water and maintained at 25° C. Illumination (1000-1100 lx) was provided by ceiling-mounted fluorescent lights on a 12-h cycle (on: 6.00 h, off: 18.00 h) according to the standards of zebrafish care. All fish used in this study were experimentally naïve and fed Tetramin Tropical Flakes (Tetra USA, Blacksburg, Va.) twice a day. Following behavioral testing, the animals were euthanized in 500 mg/L Tricaine (Sigma-Aldrich, St. Louis, Mo.) buffered to pH=7.0. Animal experimentation in this study fully adhered to national and institutional guidelines and regulations.
A 1 mg/L dose of noribogaine (DMX1) was chosen based on pilot experiments and literature reports on effective doses other similar compounds. […] A standard 20-min pre-treatment time was chosen based on experience with a wide range of other neuroactive compounds and the results of pilot studies. This exposure time was also sufficient for provoking physiological (e.g., cortisol and c-fos) responses of zebrafish to multiple drugs. Drug exposure in this study was performed by submerging individual zebrafish in a 1-L plastic beaker for 20 min prior to the testing. The solution was regularly changed after each exposure, to ensure that each fish is exposed to a consistent concentration of noribogaine. Control fish were exposed to noribogaine-free water for the same treatment time, as described above.
Behavioral testing was performed between 11:00 and 15:00 h using tanks with water adjusted to the holding room temperature (25° C.). The study used the novel tank test (NTT) protocol. NTT represents one of the most commonly used neurophenotyping tests for adult zebrafish. To avoid the test battery or handling effects, each assay was performed once, on a separate individual naïve fish each time. Prior to testing, fish were pre-exposed individually in a 1-L plastic beaker for 20 min to either drug-treated or drug-free water. During testing, zebrafish behavior was recorded by two trained observers blind to the treatments, who manually scored different behavioral endpoints (inter- and intra-rater reliability in all experiments>0.85) with subsequent automated analysis of generated traces by Ethovision XT8.5 software (Noldus IT, Wageningen, Netherlands). The NTT, used to assess zebrafish anxiety and locomotion, was a 1.5-L trapezoidal tank (15 cm height×28 cm top×23 cm bottom×7 cm width; Aquatic Habitats, Apopka, Fla.) maximally filled with water and divided into two equal virtual horizontal portions by a line marking the outside walls. Fish were individually pre-exposed to water (water control), chronic nicotine (1 mg/L), repeated withdrawal from chronic nicotine (WD), and repeated withdrawal plus noribogaine (1 mg/L) for 20 min and tested in the standard 5-min NTT.
Zebrafish behavior was recorded by trained observers, scoring the latency to reach the top half of the tank(s), time spent in top(s), number of transitions to top, as well as the number and duration(s) of freezing bouts. Freezing was defined as a total absence of movement, except for the gills and eyes, for >2 s. Trials were also recorded to a computer using a USB webcam (2.0-megapixel, Gigaware, UK) and subsequently analyzed by Ethovision XT8.5, assessing distance traveled (m), velocity (m/s), and meandering endpoints. During manual observation, videos were recorded in MPEG1 format with the maximum sample rate 30 fps for each trial by auto-focusing 2.0 MP USB webcams, placed 25 cm in front of the tanks, and attached to laptop computers. Recorded videos were analyzed with Ethovision XT8.5 software. All environments were calibrated for each arena and the calibration axes were placed to designate the origin (0,0) at the center of each tank. […]

[3] = Safety and tolerability of noribogaine in healthy humans
[4] = Pharmacokinetics in opioid-dependent patients (Phase IB study); conditions: 60, 120, 180 mg cohorts
[5] = nicotine withdrawal + 1 mg/L, 20 min immersion, 5-min NTT
[6] = nicotine withdrawal + 1 mg/L, NTT
[7] = nicotine withdrawal + 1 mg/L, vs control, chronic nicotine and nicotine withdrawal groups

Structure (SMILES): CC[C@H]1CC2C[C@H]3c4[nH]c5ccc(O)cc5c4CCN(C2)C13 [Noribogaine]
- VAS pain scores, each dose group compared with placebo [1]: no statistically significant differences
- duration of hand immersion, each dose group compared with placebo [1]: no statistically significant differences
- anxiolytic-like effects (manual NTT endpoints) ([2]; 1 mg/L): statistically significant anxiolytic-like effects
- circling behavior ([2]; 1 mg/L, NTT, unaltered turn angle): did not evoke circling behavior
- Anxiogenic-like and locomotor effects of repeated nicotine withdrawal ([2]; 1 mg/L, acute): fully reversed
- motor activity (distance traveled and velocity measures) ([2]; 1 mg/L, computer-generated NTT endpoints): unaltered motor activity
- efficacy in pilot experiment ([2]; 1 mg/L, dose did not promote locomotor effects): sub-maximal efficacy
- latency to top [2, 5]: statistically significant decrease
- transitions to top [2, 5]: statistically significant increase
- transitions to upper half of tank per minute (habituation) [2, 5]: reached values equivalent to the control group at 5 minutes
- Average velocity [2, 6]: corrected by noribogaine treatment
- Freezing bouts' frequency and duration [2, 6]: reversed that effect in nicotine withdrawal fish and re-established levels to that of the control fish group
- Total distance traveled (anxiety-like response of withdrawal group) [2, 6]: corrected by treatment with noribogaine
- absolute change in direction (rotation angle) [2, 6]: no difference observed
- absolute change in direction of movement per distance moved (FIG. 12, panel G), reduced in withdrawal group [2, 6]: corrected by treatment with noribogaine
- freezing bouts frequency [2, 6]: re-established the high bouts due to nicotine withdrawal toward control levels
- high-mobility number of events [2, 6]: increase in high-mobility number of events
- increase of hi-mobility duration and frequency (factor) [2, 6]: ~2
- mobility and immobility endpoints (durations, frequency) [2, 6]: reestablished mobility (mobile and immobile) durations and frequency in nicotine treated fish to control values
- relative change in direction; absolute change in direction of movement per distance moved (FIG. 12, panels E and F) [2, 6]: no change was seen
- mobility and immobility endpoints (durations, frequency) ([2]; nicotine withdrawal + 1 mg/L, NTT, listed as noribogaine): control-equivalent values for mobility and immobility endpoints
- turning rotation rate ([2]; nicotine withdrawal + 1 mg/L, over chronic nicotine and nicotine withdrawal groups): slight increase in turning rotation rate
- average entry duration [2, 7]: increased average entry duration
- time spent in top [2, 7]: Statistically significant increases in the duration of time spent in the top(s) portion of the tank
- number of adverse events reported ([3]; 3 mg dose group): five adverse events were reported by two subjects
- number of adverse events reported ([3]; 10 mg dose group): one adverse event was reported by single subjects
- number of adverse events reported ([3]; 30 mg dose group): one adverse event was reported by single subjects
- intensity of adverse events ([3]; all dose groups, all resolved prior to study completion): mild-moderate intensity
- Adverse events: Mild ([3]; healthy volunteers, 3 mg dose): Dizziness; also recorded: Epistaxis; also recorded: Headache; also recorded: Back pain
- Adverse events: Moderate ([3]; healthy volunteers, 3 mg dose): Headache
- Adverse events: Mild ([3]; healthy volunteers, 10 mg dose): Headache
- Adverse events: Mild ([3]; healthy volunteers, 30 mg dose): Headache
- QTcF values ([3]; healthy volunteers, 3-60 mg, at any time): ≤ 500 ms
- increase in QTcF ([3]; one subject, 10 mg, single increase at 24 hours post-dosing): > 60 ms
- dose dependence of maximum serum concentration (Cmax) [4]: increased in a dose-dependent manner
